Reference: ChEMBL document CHEMBL4130577, “Platanic acid: A new scaffold for the synthesis of cytotoxic agents” (Eur J Med Chem, 2018)
pEC50: −log10 of the molar value.

Legend:
[1] = test system: HT-29; experiment: cells; conditions: Homo sapiens, HT-29, 96 h
Description: Cytotoxicity against human HT-29 cells after 96 hrs by SRB assay

[2] = test system: NIH3T3; experiment: Cytotoxicity against mouse NIH/3T3 cells after 96 hrs by SRB assay; assay type: cell-based; conditions: NIH3T3, 96 h
[3] = test system: A2780; experiment: Cytotoxicity against human A2780 cells after 96 hrs by SRB assay; assay type: functional, cell-based; conditions: A2780, 96 h
[4] = test system: MCF7; experiment: Cytotoxicity against human MCF7 cells after 96 hrs by SRB assay; assay type: functional, cell-based; conditions: MCF7, 96 h
[5] = test system: 518A2; experiment: Cytotoxicity against human 518A2 cells after 96 hrs by SRB assay; assay type: functional, cell-based; conditions: 518A2, 96 h
[6] = test system: A549; experiment: Cytotoxicity against human A549 cells after 96 hrs by SRB assay; assay type: functional, cell-based; conditions: A549, 96 h

Row | Structure (SMILES) | pEC50 [1] | pEC50 [2] | pEC50 [3] | pEC50 [4] | pEC50 [5] | pEC50 [6]
1 | CC(=O)O[C@H]1CC[C@]2(C)[C@H]3CC[C@@H]4[C@H]5[C@H](C(C)=O)CC[C@]5(C(=O)OCc5ccccc5)CC[C@@]4(C)[C@]3(C)CC[C@H]2C1(C)C | < 4.52 | < 4.52 | < 4.52 | < 4.52 | – | –
2 | COC(=O)[C@]12CC[C@@H](C(C)=O)[C@@H]1[C@H]1CC[C@@H]3[C@@]4(C)CC[C@H](OC(C)=O)C(C)(C)[C@@H]4CC[C@@]3(C)[C@]1(C)CC2 | < 4.52 | < 4.52 | < 4.52 | < 4.52 | – | –
3 | CC(=O)[C@@H]1CC[C@]2(C(=O)O)CC[C@]3(C)[C@H](CC[C@@H]4[C@@]5(C)CC[C@H](O)C(C)(C)[C@@H]5CC[C@]43C)[C@@H]12 [PLATANIC ACID] | 4.44 | 4.45 | 4.43 | 4.47 | 4.35 | 4.33
4 | C[C@@H](N)[C@@H]1CC[C@]2(CO)CC[C@]3(C)[C@H](CC[C@@H]4[C@@]5(C)CC[C@H](O)C(C)(C)[C@@H]5CC[C@]43C)[C@@H]12 | 4.69 | 4.80 | < 4.52 | < 4.52 | 4.63 | < 4.52
5 | CC(=O)[C@@H]1CC[C@]2(C(=O)NCCN(C)C)CC[C@]3(C)[C@H](CC[C@@H]4[C@@]5(C)CC[C@H](O)C(C)(C)[C@@H]5CC[C@]43C)[C@@H]12 | 5.41 | 5.46 | 5.40 | 5.49 | 5.44 | 5.29
6 | CC(=O)[C@@H]1CC[C@]2(C(=O)OCc3ccccc3)CC[C@]3(C)[C@H](CC[C@@H]4[C@@]5(C)CC[C@H](N)C(C)(C)[C@@H]5CC[C@]43C)[C@@H]12 | 5.82 | 5.64 | 5.66 | 5.74 | 5.72 | 5.68
7 | CC(=O)O[C@H]1CC[C@]2(C)[C@H]3CC[C@@H]4[C@H]5[C@H](C(C)=O)CC[C@]5(C(=O)O)CC[C@@]4(C)[C@]3(C)CC[C@H]2C1(C)C | < 4.52 | < 4.52 | < 4.52 | < 4.52 | < 4.52 | < 4.52
8 | CC(=O)O[C@H]1CC[C@]2(C)[C@H]3CC[C@@H]4[C@H]5[C@H](/C(C)=N\O)CC[C@]5(C(=O)OCc5ccccc5)CC[C@@]4(C)[C@]3(C)CC[C@H]2C1(C)C | 4.70 | 4.85 | 5.00 | 5.14 | 4.78 | 4.95
9 | CC(=O)[C@@H]1CC[C@]2(C(=O)NCCN)CC[C@]3(C)[C@H](CC[C@@H]4[C@@]5(C)CC[C@H](O)C(C)(C)[C@@H]5CC[C@]43C)[C@@H]12 | 5.64 | 5.60 | 5.60 | 5.62 | 5.60 | 5.59
10 | CC(=O)[C@@H]1CC[C@]2(C(=O)OCc3ccccc3)CC[C@]3(C)[C@H](CC[C@@H]4[C@@]5(C)CC[C@H](O)C(C)(C)[C@@H]5CC[C@]43C)[C@@H]12 | 5.00 | 4.74 | 4.80 | 5.05 | – | 4.80
11 | CC(=O)O[C@H]1CC[C@]2(C)[C@H]3CC[C@@H]4[C@H]5[C@H](C(C)=O)CC[C@]5(C(=O)NCCN5CCCC5)CC[C@@]4(C)[C@]3(C)CC[C@H]2C1(C)C | 5.66 | 6.22 | 5.37 | 5.70 | 5.48 | 5.54
12 | CC(=O)[C@@H]1CC[C@]2(C(=O)OCc3ccccc3)CC[C@]3(C)[C@H](CC[C@@H]4[C@@]5(C)CCC(=O)C(C)(C)[C@@H]5CC[C@]43C)[C@@H]12 | < 4.52 | < 4.52 | < 4.52 | < 4.52 | < 4.52 | < 4.52
13 | CN[C@@H]1C[C@H]2O[C@@](C)([C@@H]1OC)n1c3ccccc3c3c4c(c5c6ccccc6n2c5c31)C(=O)NC4 [STAUROSPORINE] | 6.82 | 8.10 | 6.92 | – | – | 7.40
14 | CC(=O)O[C@H]1CC[C@]2(C)[C@H]3CC[C@@H]4[C@H]5[C@H](/C(C)=N/O)CC[C@]5(C(=O)OCc5ccccc5)CC[C@@]4(C)[C@]3(C)CC[C@H]2C1(C)C | 4.91 | 5.21 | 5.21 | 5.17 | 5.05 | 5.10

The next lines start with results.

Row | pEC50 [1] | Structure (SMILES) | pEC50 [2] | pEC50 [3] | pEC50 [4] | pEC50 [5] | pEC50 [6]
15 | 5.89 | CC(=O)O[C@H]1CC[C@]2(C)[C@H]3CC[C@@H]4[C@H]5[C@H]([C@H](C)N)CC[C@]5(C(=O)OCc5ccccc5)CC[C@@]4(C)[C@]3(C)CC[C@H]2C1(C)C | 5.70 | 5.64 | 5.89 | 5.60 | 5.48
16 | 5.48 | CC(=O)O[C@H]1CC[C@]2(C)[C@H]3CC[C@@H]4[C@H]5[C@H](C(C)=O)CC[C@]5(C(=O)NCCN)CC[C@@]4(C)[C@]3(C)CC[C@H]2C1(C)C | 5.68 | 5.49 | 5.51 | 5.49 | 5.49
17 | < 4.52 | COC(=O)[C@]12CC[C@@H](NC(C)=O)[C@@H]1[C@H]1CC[C@@H]3[C@@]4(C)CC[C@H](OC(C)=O)C(C)(C)[C@@H]4CC[C@@]3(C)[C@]1(C)CC2 | 4.62 | 4.66 | 5.00 | – | 4.56
18 | 4.56 | COC(=O)[C@]12CC[C@@H]([C@@H](C)NC(C)=O)[C@@H]1[C@H]1CC[C@@H]3[C@@]4(C)CC[C@H](OC(C)=O)C(C)(C)[C@@H]4CC[C@@]3(C)[C@]1(C)CC2 | 4.80 | 4.56 | 4.67 | 4.57 | 4.64
19 | < 4.52 | CC(=O)O[C@H]1CC[C@]2(C)[C@H]3CC[C@@H]4[C@H]5[C@H](C(C)=O)CC[C@]5(N=C=O)CC[C@@]4(C)[C@]3(C)CC[C@H]2C1(C)C | < 4.52 | < 4.52 | < 4.52 | – | –
20 | 4.89 | COC(=O)[C@]12CC[C@@H](/C(C)=N\O)[C@@H]1[C@H]1CC[C@@H]3[C@@]4(C)CC[C@H](OC(C)=O)C(C)(C)[C@@H]4CC[C@@]3(C)[C@]1(C)CC2 | 4.91 | 4.89 | 4.92 | 5.01 | 5.06
21 | 5.35 | CC(=O)O[C@H]1CC[C@]2(C)[C@H]3CC[C@@H]4[C@H]5[C@H](C(C)=O)CC[C@]5(C(=O)NCCN(C)C)CC[C@@]4(C)[C@]3(C)CC[C@H]2C1(C)C | 5.85 | 5.42 | 5.60 | 5.43 | 5.54
22 | 4.61 | COC(=O)[C@]12CC[C@@H]([C@H](C)NC(C)=O)[C@@H]1[C@H]1CC[C@@H]3[C@@]4(C)CC[C@H](OC(C)=O)C(C)(C)[C@@H]4CC[C@@]3(C)[C@]1(C)CC2 | 4.71 | 4.60 | 4.75 | 4.52 | 4.59
23 | 4.62 | COC(=O)[C@]12CC[C@@H](/C(C)=N/OC(C)=O)[C@@H]1[C@H]1CC[C@@H]3[C@@]4(C)CC[C@H](OC(C)=O)C(C)(C)[C@@H]4CC[C@@]3(C)[C@]1(C)CC2 | 4.82 | – | 4.88 | 4.78 | 4.87
24 | 5.70 | COC(=O)[C@]12CC[C@@H]([C@H](C)N)[C@@H]1[C@H]1CC[C@@H]3[C@@]4(C)CC[C@H](OC(C)=O)C(C)(C)[C@@H]4CC[C@@]3(C)[C@]1(C)CC2 | 5.36 | 5.22 | 5.34 | 5.20 | 5.18
25 | < 4.52 | CNC(=O)[C@@H]1CC[C@]2(C(=O)OC)CC[C@]3(C)[C@H](CC[C@@H]4[C@@]5(C)CC[C@H](OC(C)=O)C(C)(C)[C@@H]5CC[C@]43C)[C@@H]12 | < 4.52 | 4.95 | 4.86 | – | < 4.52
26 | 5.92 | CC(=O)OC[C@]12CC[C@@H]([C@@H](C)N)[C@@H]1[C@H]1CC[C@@H]3[C@@]4(C)CC[C@H](OC(C)=O)C(C)(C)[C@@H]4CC[C@@]3(C)[C@]1(C)CC2 | 5.40 | 5.60 | 5.68 | 5.66 | 5.64
27 | < 4.52 | COC(=O)[C@]12CC[C@@H](NC(C)=O)[C@@H]1[C@H]1CC[C@@H]3[C@@]4(C)CC[C@H](O)C(C)(C)[C@@H]4CC[C@@]3(C)[C@]1(C)CC2 | < 4.52 | < 4.52 | < 4.52 | – | < 4.52
28 | < 4.52 | CNC(=O)[C@@H]1CC[C@]2(C(=O)OC)CC[C@]3(C)[C@H](CC[C@@H]4[C@@]5(C)CC[C@H](O)C(C)(C)[C@@H]5CC[C@]43C)[C@@H]12 | < 4.52 | < 4.52 | < 4.52 | – | < 4.52
29 | < 4.52 | COC(=O)[C@]12CC[C@@H](C(C)=O)[C@@H]1[C@H]1CC[C@@H]3[C@@]4(C)CC[C@H](O)C(C)(C)[C@@H]4CC[C@@]3(C)[C@]1(C)CC2 | < 4.52 | < 4.52 | < 4.52 | – | < 4.52
30 | 4.54 | CCC(=O)O/N=C(\C)[C@@H]1CC[C@]2(C(=O)OC)CC[C@]3(C)[C@H](CC[C@@H]4[C@@]5(C)CC[C@H](OC(C)=O)C(C)(C)[C@@H]5CC[C@]43C)[C@@H]12 | 4.82 | – | 4.87 | 4.75 | 4.88
